Measured values: paper PMC11595719, “Design of Ctenophore Ca^2+-Regulated Photoprotein Berovin Capable of Being Converted into Active Protein Under Physiological Conditions: Computational and Experimental Approaches” (Life, 2024)

Legend:
Test in all cases: Trp fluorescence quenching at […] nm
Type in all cases: binding
[1] = molecular target: T1, berovin (apo-berovin, BAwt) (Beroe abyssicola, UniProt H8ZZK1, K90A/N107S)
T1 construct: gene BA2; monomeric

[2] = molecular target: T2, berovin (apo-berovin, BAwt) (Beroe abyssicola, UniProt H8ZZK1)
T2 construct: gene BA2; monomeric
T2 sequence (H8ZZK1 1-208): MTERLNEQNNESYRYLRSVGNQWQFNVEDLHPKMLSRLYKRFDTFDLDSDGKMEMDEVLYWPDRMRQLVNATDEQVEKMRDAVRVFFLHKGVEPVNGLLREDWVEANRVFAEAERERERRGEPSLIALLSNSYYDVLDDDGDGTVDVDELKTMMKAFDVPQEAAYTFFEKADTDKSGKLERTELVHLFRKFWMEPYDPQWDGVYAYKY

[3] = molecular target: T3, berovin (apo-berovin, BAwt) (Beroe abyssicola, UniProt H8ZZK1, K90M)
T3 construct: gene BA2; monomeric
T3 sequence (H8ZZK1 entry or part of it K90M): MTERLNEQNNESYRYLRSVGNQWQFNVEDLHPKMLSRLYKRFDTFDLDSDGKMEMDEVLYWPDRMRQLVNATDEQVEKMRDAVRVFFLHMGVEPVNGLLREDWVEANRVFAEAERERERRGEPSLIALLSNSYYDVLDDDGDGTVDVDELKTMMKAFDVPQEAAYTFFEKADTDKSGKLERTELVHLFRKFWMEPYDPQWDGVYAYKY

berovin (apo-berovin) = molecular target: T4, berovin (apo-berovin) (Beroe abyssicola, UniProt H8ZZK1, K90M/N107S/W103F)
T4 construct: gene BA2; monomeric
T4 sequence (H8ZZK1 entry or part of it K90M/W103F/N107S): as the sequence (H8ZZK1 entry or part of it K90M) above, with W103F, N107S counted along it

T1 sequence (H8ZZK1 entry or part of it K90A/N107S): as the sequence (H8ZZK1 entry or part of it K90M) above, with M90A, N107S counted along it

SMILES: Oc1ccc(Cc2nc3c(Cc4ccccc4)nc(-c4ccc(O)cc4)cn3c2O)cc1 [coelenterazine]
- Kd [1]: 1.3 ± 0.15 µM
- Kd [2]: 4.72 ± 0.36 µM
- Kd [3]: 2.61 ± 0.28 µM
- Kd (berovin (apo-berovin)): 6.62 ± 0.54 µM
